From patent US20060110405A1, “Plasma or serum fraction for treatment and prevention of viral infections and related conditions” (priority 2004, published 2006)
≈ marks a conversion by molar mass, not a printed value.

Experiments:
HeLa LTR β-Gal cells = test: Cellular toxicity in parallel plates, tetrazolium dye (XTT) cell viability end point
Description: The fold increase in activity was calculated as a relative decrease in EC50 to the Week 0 material. Chicago Sky Blue was included as a positive control for inhibition of viral attachment.
HIV Attachment Assay: A crude serum sample dialyzed against Buffer A, the dialyzed 66% ammonium sulfate pellet, and DEAE-Blue fractions 12, 14, 60, 62, 64, and 66 were analyzed for anti-HIV activity in a virus attachment assay. These fractions were diluted in Buffer A to a 2× high test concentration and analyzed for anti-HIV activity in a cell attachment assay that utilizes a galactosidase reporter to measure virus attachment and infection. Sister plates were used to evaluate fraction toxicity using an XTT based end point. Briefly, on the day prior to compound and virus addition, 100 μL of HeLa LTR β-Gal cells at a density of 1×10^4/well in 10% complete DMEM were plated in 96-well flat bottomed plates and incubated overnight at 37° C./5% CO2. Duplicate plates were seeded in order to evaluate efficacy and toxicity in parallel. Following the overnight incubation, selected protein fractions diluted to a high test concentration in culture media and were further diluted in ½ log increments such that a total of 6 concentrations were evaluated.
Medium was removed and 50 μL of the prepared compound dilutions were added in triplicate to both plates. A volume of 50 μL of 10% complete DMEM was added to the virus control wells and 100 μL was added to the cell control wells. Plates were incubated for approximately 15-30 minutes while virus (HIV-1 IIIB) was being prepared. The appropriate titer of virus used in the assay was determined and prepared and 50 μL was then added to the wells containing compound and the virus control wells on the efficacy plate. On the toxicity plate, 50 μL of 10% complete DMEM was added to these same wells. Plates were incubated for 2 hours at 37° C./5% CO2. […] Following the washing steps, 200 μL of 10% complete DMEM was added to all wells and the plates were incubated at 37° C./5% CO2 for 48 hours. The toxicity plates were evaluated by the addition of the tetrazolium dye XTT which is converted by mitochondrial enzymes in viable cells to a soluble formazan product. Efficacy plates were evaluated by the chemilluminescence detection assay.

HIV-1 IIIB = test: microbe, parasite or virus in culture; format: cell-based
Description: Antibody depletion experiments were conducted on the product prepared as described in Example 3 by the panning technique as follows. […] The plate was incubated for 3 hours at room temperature. Following the incubation, the antibodies and PBS were removed and 200 μL of blocking solution (0.05% Tween 20, 10 mg/mL BSA in PBS) was added and the plate was incubated overnight at 4° C. Following the overnight incubation, the wells were washed 5 times with wash buffer (PBS plus 0.05% Tween-20). One hundred fifty microliters (150 μL) of the serum product (designated VR-30) was added to each of the wells and the plate was incubated for 2 hours at 37° C.
The serum was then removed and used in the HIV-β-galactosidase attachment assay. The depleted material was evaluated for activity in parallel with undepleted VR-30 (VR-30 Std Treatment) and mock-depleted VR-30 (VR-30 PBS).
The anti-HIV-activity of the initial serum sample is determined by: (1) measuring the protein concentration of the serum fraction using Bradford or Lowery based method for determining protein concentration; (2) determining the activity of the fraction using established in vitro anti-viral assay (attachment assay); (3) assigning a unit of activity to the fraction based on the amount of protein needed to achieve a 50% inhibition of viral replication/infectivity (IC50). This unit can be used as a baseline to track the fold purification obtained through the fractionation process.
Efficacy plates were evaluated by the chemilluminescence detection assay.
All EC50's in FIG. 2 and Table IV are the concentration of total protein (μg/ml) in a given fraction that inhibited viral replication in the attachment assay to 50% of the no compound control.

[1] = test system: monocytes and macrophages; settings: antiviral models and cytokine induction from monocytes and macrophages; cited from earlier work

Compound | TC50 (HeLa LTR β-Gal cells; Table I, control compounds) | TC50 (HeLa LTR β-Gal cells; Table II, 50% cellular toxicity, XTT) | TC50 (HeLa LTR β-Gal cells; Table V, XTT toxicity plates) | IC50 (HIV-1 IIIB; Human immunodeficiency virus 1, IIIB, HeLa) | EC50 (HIV-1 IIIB; Human immunodeficiency virus 1, IIIB, HeLa, Table II, total protein for 50% inhibition of HIV attachment and replication, triplicate) | EC50 (HIV-1 IIIB; Human immunodeficiency virus 1, IIIB, HeLa, Table V, total protein inhibiting viral replication to 50% of no compound control, HIV-1 IIIB) | potency relative to imiquimod [1] | IC50 (HIV-1 IIIB; Table I, control compounds)
COc1cc(-c2ccc(/N=N/c3ccc4c(S(=O)(=O)O)cc(S(=O)(=O)O)c(N)c4c3O)c(OC)c2)ccc1/N=N/c1ccc2c(S(=O)(=O)O)cc(S(=O)(=O)O)c(N)c2c1O [Chicago Sky Blue] | >10 µg/mL | >10000 µg/mL | >10 µg/mL | 1.3 µg/mL (≈ 1.44 µM) | 100 µg/mL (≈ 111 µM) | 0.6 µg/mL (≈ 0.663 µM) |  | 
CCOCc1nc2c(N)nc3ccccc3c2n1CC(C)(C)O [Fraction S-28463, 4-Amino-otec,-dimethyl-2-ethoxymethyl-lH-imidazo[4,5-c]quinoline-1-ethanol] |  |  |  |  |  |  | about 100 fold | 
Dextran Sulfate | >25 µg/mL |  |  |  |  |  |  | 0.65 µg/mL
